Assay results: patent publication US20030181527A1, “Novel formulations of alpha-2,4-disulfophenyl-n-tert-butylnitrone” (priority 2000, published 2003)

What was measured:
[1] = Effect of concentration on stability, carbonate-buffered solutions, 40 days +40° C.; assay type: physicochemical; details: 50 mM sodium hydrogen carbonate; for Final Amount of Aldehyde (II): 40 days +40° C./75% RH
Procedure: In an experiment, aqueous solutions of three different concentrations of α-(2,4-disulfophenyl)-N-tert-butylnitrone disodium salt buffered with sodium hydrogen carbonate (50 mM) were dispensed into 20 ml glass vials, sealed, and then stored for 40 days at +40° C. and 75% relative humidity.

[2] = test system: E. coli; assay: Antimicrobial efficacy (European Pharmacopoeia 2000, Chapter 5.1.3); assay type: cell-based
Procedure: (§1) The antimicrobial efficacy was tested for three different solutions: […] iii) a carbonate buffer control. The tests were performed according to European Pharmacopoeia 2000, Chapter 5.1.3, pages 259 to 260. Seven 10 ml vials were inoculated, one per test organism. During the tests, the vials were stored at controlled room temperature and protected from light. At different time intervals, samples were withdrawn and after appropriate dilutions the numbers of viable microorganisms (colony forming units per ml, CFU/ml) were determined using standard plate count procedures.

[3] = test system: E. gergoviae; assay: as above; assay type: cell-based; details: for Number of CFUs per ml - Time after Inoculation: E. gergoviae
Procedure: as §1

[4] = Stability with air or nitrogen filled headspaces (Table 5); assay type: physicochemical; details: 400 mg/ml
Procedure: A 400 mg/ml concentrate of α-(2,4-disulfophenyl)-N-tert-butylnitrone disodium salt was prepared by adding α-(2,4-disulfophenyl)-N-tert-butylnitrone disodium salt (1500 g) to water for injection (2200 ml) containing dissolved disodium hydrogen phosphate dihydrate (3.51 g). The solution was then adjusted to pH 8.5 by the addition of 2M sodium hydroxide solution and then water for injection was added to give a final volume of 3750 ml. After preparation, the solution was purged with nitrogen for 90 minutes and then placed in 10 ml glass vials with a fill volume of 7.7 ml. Before stoppering the vials, the headspace was purged with nitrogen. […] The vials were stored either at +5° C. at ambient humidity or at +25° C. and 60% relative humidity.
A second batch of 400 mg/ml concentrate of α-(2,4-disulfophenyl)-N-tert-butylnitrone disodium salt buffered with 50 mM phosphate buffer was treated identically except that the headspace was filled with air not nitrogen and the fill volume was 10.5 ml.

[5] = Effect on pH and stability of dilution of aqueous concentrates in 0.9% sodium chloride; assay type: physicochemical; details: 400 mg/ml concentrate, 7 ml diluted in 500 ml 0.9% NaCl, room temperature
Procedure: Three batches of an aqueous concentrate of α-(2,4-disulfophenyl)-N-tert-butylnitrone disodium salt (400 mg/ml) were prepared and adjusted to pH 8.5. One concentrate was unbuffered and the other two concentrates were buffered with respectively 2.6 or 26 mM disodium hydrogen phosphate. In each case a 7 ml portion of the concentrate was transferred into 0.9% sodium chloride solution (500 ml) contained in a PVC bag. The bags were the stored at room temperature, protected from light, for 48 hours. Samples were taken out at 0, 24 and 48 hours and analysed.

[6] = Stability versus concentration, vial size and headspace gas at +40° C. (Table 6); assay type: physicochemical
Procedure: For the 10 ml vial size, the fill volume was 10.7 ml; and for the 20 ml vial size, the fill volume was 20.7 ml.

## CC(C)(C)[N+]([O-])=Cc1ccc(S(=O)(=O)[O-])cc1S(=O)(=O)[O-].[Na+].[Na+] [α-(2,4-disulfophenyl)-N-tert-butylnitrone disodium salt]
[1]; 200 mg/ml
  Final Amount of Aldehyde (II): 3.5 Area %
  Initial Amount of Aldehyde (II): 1.7 Area %
[1]; 300 mg/ml
  Final Amount of Aldehyde (II): 3.2 Area %
  Initial Amount of Aldehyde (II): 1.7 Area %
[1]; 400 mg/ml
  Final Amount of Aldehyde (II): 2.9 Area %
  Initial Amount of Aldehyde (II): 1.8 Area %
[2]; 10 mg/ml, 6 h
  Number of CFUs per ml - Time after Inoculation: 9.0 × 10^5 CFUs per ml
[2]; 10 mg/ml, 24 h
  Number of CFUs per ml - Time after Inoculation: 5.0 × 10^4 CFUs per ml
[2]; 10 mg/ml, 48 h
  Number of CFUs per ml - Time after Inoculation: ≦10 CFUs per ml
[2]; 10 mg/ml, 7 days
  Number of CFUs per ml - Time after Inoculation: <1 CFUs per ml
[2]; 10 mg/ml, 14 days
  Number of CFUs per ml - Time after Inoculation: <1 CFUs per ml
[2]; 10 mg/ml, 21 days
  Number of CFUs per ml - Time after Inoculation: <1 CFUs per ml
[2]; 10 mg/ml, 28 days
  Number of CFUs per ml - Time after Inoculation: <1 CFUs per ml
[2]; 10 mg/ml, <1 min
  Number of CFUs per ml - Time after Inoculation: 1.5 × 10^6 CFUs per ml
[2]; 400 mg/ml, 6 h
  Number of CFUs per ml - Time after Inoculation: 4.1 × 10^4 CFUs per ml
[2]; 400 mg/ml, 24 h
  Number of CFUs per ml - Time after Inoculation: <1 CFUs per ml
[2]; 400 mg/ml, 48 h
  Number of CFUs per ml - Time after Inoculation: <1 CFUs per ml
[2]; 400 mg/ml, 7 days
  Number of CFUs per ml - Time after Inoculation: <1 CFUs per ml
[2]; 400 mg/ml, 14 days
  Number of CFUs per ml - Time after Inoculation: <1 CFUs per ml
[2]; 400 mg/ml, 21 days
  Number of CFUs per ml - Time after Inoculation: <1 CFUs per ml
[2]; 400 mg/ml, 28 days
  Number of CFUs per ml - Time after Inoculation: <1 CFUs per ml
[2]; 400 mg/ml, <1 min
  Number of CFUs per ml - Time after Inoculation: 3.8 × 10^5 CFUs per ml
[3]; 10 mg/ml, 6 h
  Number of CFUs per ml - Time after Inoculation: 2.0 × 10^5 CFUs per ml
[3]; 10 mg/ml, 24 h
  Number of CFUs per ml - Time after Inoculation: ≦10 CFUs per ml
[3]; 10 mg/ml, 48 h
  Number of CFUs per ml - Time after Inoculation: <1 CFUs per ml
[3]; 10 mg/ml, 7 days
  Number of CFUs per ml - Time after Inoculation: <1 CFUs per ml
[3]; 10 mg/ml, 14 days
  Number of CFUs per ml - Time after Inoculation: <1 CFUs per ml
[3]; 10 mg/ml, 21 days
  Number of CFUs per ml - Time after Inoculation: <1 CFUs per ml
[3]; 10 mg/ml, 28 days
  Number of CFUs per ml - Time after Inoculation: <1 CFUs per ml
[3]; 10 mg/ml, <1 min
  Number of CFUs per ml - Time after Inoculation: 8.0 × 10^5 CFUs per ml
[3]; 400 mg/ml, E. gergovia, within 6 hours
  Reduction in colony forming units per ml (CFU/ml): ≥ 10^3 fold
[3]; 400 mg/ml, 6 h
  Number of CFUs per ml - Time after Inoculation: 1.3 × 10^2 CFUs per ml
[3]; 400 mg/ml, 24 h
  Number of CFUs per ml - Time after Inoculation: <1 CFUs per ml
[3]; 400 mg/ml, 48 h
  Number of CFUs per ml - Time after Inoculation: <1 CFUs per ml
[3]; 400 mg/ml, 7 days
  Number of CFUs per ml - Time after Inoculation: <1 CFUs per ml
[3]; 400 mg/ml, 14 days
  Number of CFUs per ml - Time after Inoculation: <1 CFUs per ml
[3]; 400 mg/ml, 21 days
  Number of CFUs per ml - Time after Inoculation: <1 CFUs per ml
[3]; 400 mg/ml, 28 days
  Number of CFUs per ml - Time after Inoculation: <1 CFUs per ml
[3]; 400 mg/ml, <1 min
  Number of CFUs per ml - Time after Inoculation: 5.2 × 10^5 CFUs per ml
[4]; 50 mM phosphate, air-filled headspace, fill 10.5 ml, +5° C., 0 months
  Amount of Aldehyde (II): 0.3 area %
[4]; 50 mM phosphate, air-filled headspace, fill 10.5 ml, +5° C., 3 months
  Amount of Aldehyde (II): 0.3 area %
[4]; 50 mM phosphate, air-filled headspace, fill 10.5 ml, +5° C., 6 months
  Amount of Aldehyde (II): 0.5 area %
[4]; 50 mM phosphate, air-filled headspace, fill 10.5 ml, +5° C., 12 months
  Amount of Aldehyde (II): 0.4 area %
[4]; 50 mM phosphate, air-filled headspace, fill 10.5 ml, +25° C./60% RH, 0 months
  Amount of Aldehyde (II): 0.3 area %
[4]; 50 mM phosphate, air-filled headspace, fill 10.5 ml, +25° C./60% RH, 3 months
  Amount of Aldehyde (II): 0.7 area %
[4]; 50 mM phosphate, air-filled headspace, fill 10.5 ml, +25° C./60% RH, 6 months
  Amount of Aldehyde (II): 1.0 area %
[4]; 50 mM phosphate, air-filled headspace, fill 10.5 ml, +25° C./60% RH, 12 months
  Amount of Aldehyde (II): 0.7 area %
[4]; pH 8.5, nitrogen-filled headspace, fill 7.7 ml, +5° C., 0 months
  Amount of Aldehyde (II): 0.2 area %
[4]; pH 8.5, nitrogen-filled headspace, fill 7.7 ml, +5° C., 3 months
  Amount of Aldehyde (II): 0.2 area %
[4]; pH 8.5, nitrogen-filled headspace, fill 7.7 ml, +5° C., 6 months
  Amount of Aldehyde (II): 0.2 area %
[4]; pH 8.5, nitrogen-filled headspace, fill 7.7 ml, +5° C., 12 months
  Amount of Aldehyde (II): 0.3 area %
[4]; pH 8.5, nitrogen-filled headspace, fill 7.7 ml, +25° C./60% RH, 0 months
  Amount of Aldehyde (II): 0.2 area %
[4]; pH 8.5, nitrogen-filled headspace, fill 7.7 ml, +25° C./60% RH, 3 months
  Amount of Aldehyde (II): 0.4 area %
[4]; pH 8.5, nitrogen-filled headspace, fill 7.7 ml, +25° C./60% RH, 6 months
  Amount of Aldehyde (II): 0.3 area %
[4]; pH 8.5, nitrogen-filled headspace, fill 7.7 ml, +25° C./60% RH, 12 months
  Amount of Aldehyde (II): 0.5 area %
[5]; 2.6 mM phosphate, 0 hours
  Amount of Aldehyde (II): 0.30 Area %
  pH: 6.50
[5]; 2.6 mM phosphate, 24 hours
  Amount of Aldehyde (II): 0.44 Area %
  pH: 6.69
[5]; 2.6 mM phosphate, 48 hours
  Amount of Aldehyde (II): 0.57 Area %
  pH: 6.67
[5]; 26 mM phosphate, 0 hours
  Amount of Aldehyde (II): 0.17 Area %
  pH: 7.43
[5]; 26 mM phosphate, 24 hours
  Amount of Aldehyde (II): 0.20 Area %
  pH: 7.39
[5]; 26 mM phosphate, 48 hours
  Amount of Aldehyde (II): 0.25 Area %
  pH: 7.38
[5]; no buffer, 0 hours
  Amount of Aldehyde (II): 0.25 Area %
  pH: 6.01
[5]; no buffer, 24 hours
  Amount of Aldehyde (II): 0.68 Area %
  pH: 6.32
[5]; no buffer, 48 hours
  Amount of Aldehyde (II): 0.89 Area %
  pH: 6.48
[6]; 50 mg/ml, 10 ml vial, N2 in headspace, 2 months at +40° C.
  Amount of Aldehyde (II): 1.4 w/w %
[6]; 50 mg/ml, 10 ml vial, N2 in headspace, 3 months at +40° C.
  Amount of Aldehyde (II): 1.5 w/w %
[6]; 50 mg/ml, 10 ml vial, N2 in headspace, 6 months at +40° C.
  Amount of Aldehyde (II): 1.7 w/w %
[6]; 50 mg/ml, 10 ml vial, N2 in headspace, initial
  Amount of Aldehyde (II): 0.2 w/w %
[6]; 50 mg/ml, 10 ml vial, air in headspace, 2 months at +40° C.
  Amount of Aldehyde (II): 2.8 w/w %
[6]; 50 mg/ml, 10 ml vial, air in headspace, 3 months at +40° C.
  Amount of Aldehyde (II): 3.3 w/w %
[6]; 50 mg/ml, 10 ml vial, air in headspace, 6 months at +40° C.
  Amount of Aldehyde (II): 3.5 w/w %
[6]; 50 mg/ml, 10 ml vial, air in headspace, initial
  Amount of Aldehyde (II): 0.2 w/w %
[6]; 100 mg/ml, 10 ml vial, air in headspace, 2 months at +40° C.
  Amount of Aldehyde (II): 1.8 w/w %
[6]; 100 mg/ml, 10 ml vial, air in headspace, initial
  Amount of Aldehyde (II): 0.2 w/w %
[6]; 400 mg/ml, 10 ml vial, N2 in headspace, 2 months at +40° C.
  Amount of Aldehyde (II): 0.5 w/w %
[6]; 400 mg/ml, 10 ml vial, N2 in headspace, 3 months at +40° C.
  Amount of Aldehyde (II): 0.6 w/w %
[6]; 400 mg/ml, 10 ml vial, N2 in headspace, initial
  Amount of Aldehyde (II): 0.3 w/w %
[6]; 400 mg/ml, 10 ml vial, air in headspace, 2 months at +40° C.
  Amount of Aldehyde (II): 0.8 w/w %
[6]; 400 mg/ml, 10 ml vial, air in headspace, 3 months at +40° C.
  Amount of Aldehyde (II): 0.9 w/w %
[6]; 400 mg/ml, 10 ml vial, air in headspace, initial
  Amount of Aldehyde (II): 0.3 w/w %
[6]; 400 mg/ml, 20 ml vial, N2 in headspace, 2 months at +40° C.
  Amount of Aldehyde (II): 0.5 w/w %
[6]; 400 mg/ml, 20 ml vial, N2 in headspace, 3 months at +40° C.
  Amount of Aldehyde (II): 0.5 w/w %
[6]; 400 mg/ml, 20 ml vial, N2 in headspace, initial
  Amount of Aldehyde (II): 0.3 w/w %
[6]; 400 mg/ml, 20 ml vial, air in headspace, 2 months at +40° C.
  Amount of Aldehyde (II): 0.7 w/w %
[6]; 400 mg/ml, 20 ml vial, air in headspace, 3 months at +40° C.
  Amount of Aldehyde (II): 0.8 w/w %
[6]; 400 mg/ml, 20 ml vial, air in headspace, initial
  Amount of Aldehyde (II): 0.3 w/w %
